{"source": "paper PMC6696373", "about": "(Molecules, 2019)", "key": {"[1]": {"system": "Caco-2 cell monolayers", "conditions": "cited from earlier work", "protocol": "To elucidate the transepithelial transport pathway of WGAPSL, some inhibitors, such as cytochalasin D, wortmannin, sodium azide, and Gly-Pro, were added to Caco-2 cell monolayers (Figure 4)."}, "[2]": {"system": "Caco-2 cell monolayers", "conditions": "cited from earlier work", "remark": "listed apart in the source", "description": "The apparent permeability coefficient (Papp) value reflects the velocity of passage through the epithelium."}, "[3]": {"experiment": "Caco-2 cell monolayers in HBSS, apical (AP) and basolateral (BL) sides", "conditions": "human, 37 °C, up to 120 min"}, "[4]": {"system": "1:10,000 pepsin, then 1:250 trypsin", "experiment": "simulated gastrointestinal digestion: pepsin in HBSS at pH 2.0, then trypsin at pH 7.5", "conditions": "37 °C, up to 90 min (pepsin) then 4 h (trypsin)"}, "[5]": {"system": "Caco-2 cell monolayers", "experiment": "Effects of transport pathway inhibitors on peptide transport in Caco-2 cell monolayers", "type": "in vitro ADME, human", "conditions": "Caco-2 AP→BL, 2 mM in HBSS pH 7.4, 120 min, LC-MS", "experimental": "Prior to transport experiments, Caco-2 cell monolayers were gently rinsed with HBSS, and then incubated for 30 min at 37 °C in 5% CO2. Afterwards, HBSS was drawn from both the AP side and BL side of all wells. HBSS (0.1 mL) with 2 mM WGAPSL was added to the AP side and 0.6 mL of fresh HBSS was added to the BL side. All transwell plates were incubated at 37 °C in 5% CO2 for 30, 60, 90, or 120 min. The transport experiment was done in triplicate for three consecutive days after 21 days, in which the cell model was developed.\nFour inhibitors, including transport inhibitors cytochalasin D (a cell tight junction disruptor, 0.5 μg/mL), wortmannin (transcytosis inhibitor, 500 nM), sodium azide (ATP synthesis inhibitor, 10 mM), and Gly-Pro (transport peptide PepT 1 substrate, 10 mM) were applied to identify the transport routes of the peptide. After 120 min, the concentration of the peptide was determined in the basolateral samples [6].\nAnalysis of AP and BL samples gathered after the transport of WGAPSL across Caco-2 cells was performed by Agilent LC-MS (6420 Triple Quad, […]). A symmetrical 4.6 × 250 mm C18 column (GL Sciences, Tokyo, Japan) was used for fragments separations. The analysis was done in the MS Scan mode, and the injection volume was set to 20 μL. The peptide was applied in formic acid as an organic regulator to improve the MS signal of the peptide. Solvents A and B were formic acid/milli Q water (0.1:100, v/v) and formic acid/acetonitrile (0.1:100, v/v). For WGAPSL, the sample elution was run at 0.7 mL/min using a linear gradient of solvent B in A from 18% to 43% for 25 min, 43–100% for 5 min, and 100–18% for 10 min to equalize the column. The accumulation and ionization conditions in the ion trap were optimized automatically, and the target mass of the molecular ion was as follows: m/z 630.633 (WGAPSL)."}, "[6]": {"system": "Caco-2 cell monolayers", "experiment": "Transepithelial transport across Caco-2 cell monolayers", "type": "in vitro ADME, human", "conditions": "concluded from the efflux ratio in Caco-2 monolayers", "experimental": "Caco-2 cells were obtained from China Infrastructure of Cell Line Resource (Beijing, China) and were cultured based on the method of Zhang et al.. Cells were cultured in MEM containing 10% fetal bovine serum, 1 mM nonessential amino acid solution, 1% penicillin-streptomycin, and 1% HEPES buffer. Caco-2 cells were seeded at 5 × 10^5 cells/mL in 25 cm^2 tissue culture flasks, and incubated at 37 °C in 5% CO2 with 95% humidity. The passage number of the cells used in the study was between 30 and 40. The medium in cell cultures were replaced every two days and detached from 70–80% confluency using 0.05% trypsin and 0.02% Ethylene Diamine Tetraacetic Acid (EDTA) solution. For the transport experiments, Caco-2 cells were seeded into a collagen-coated transwell plate (6.5 mm diameter, 0.4 μm pore size Corning Costar) at a density of 1 × 10^5 cells/well. […]\nThe bilateral transport experiments also assessed transport from the BL to AP side. […]\nThe Papp values were calculated as follows (Equation (1)):(1) Papp=dQ/dt×1/A×1/C0 where dQ/dt is the permeability rate (mmol/s); A is the membrane area (cm^2); and C0 is the initial concentration of peptide solution in the donor chamber (mM). […]\nA standard curve was prepared with a synthetic peptide diluted in HBSS, and the peptide concentrations were 0–3.9 μM. The curve was analyzed as indicated above for the BL samples. […]"}, "[7]": {"experiment": "CCK-8 cytotoxicity assay", "type": "cell-based, human", "conditions": "human, Caco-2, 10 mM peptide in DMEM, 2 h incubation then 4 h with CCK-8, 37 °C, absorbance, three replications, read-out: Survival rate of Caco-2 cells", "experimental": "(§1) The effects of the WGAPSL peptide on Caco-2 cell proliferation were observed using the CCK-8 cell counting kit (Dojindo, Japan). The WST-8 (2-(2-methoxy-4-nitrophenyl)-3-(4-nitrophenyl)-5-(2,4-disulfophenyl)-2H-tetrazolium, monosodium salt) reagent was used based on the kit specifications. Caco-2 cells were plated in 96-well culture plates in a final volume of 100 μL/well of culture medium (1 × 10^5 cells/well) at 37 °C in 5% CO2 for 24 h and incubated with 1–10 mM WGAPSL (diluted in DMEM) or DMEM only for 2 h, followed by incubation with 10 μL CCK-8 and incubation for another 4 h and then the absorbance was measured."}, "[8]": {"system": "Caco-2 cells", "experiment": "CCK-8 cytotoxicity assay", "type": "cell-based, human", "conditions": "2 h incubation then 4 h with CCK-8, 37 °C, absorbance, three replications", "experimental": "as §1"}, "[9]": {"system": "pepsin and trypsin", "experiment": "Simulated gastrointestinal digestion (two-stage pepsin then trypsin hydrolysis)", "type": "in vitro ADME", "conditions": "1 mg/mL in HBSS, pepsin pH 2.0, E/S 1:50 w/w, 37 °C, 90 min, then trypsin pH 7.5, E/S 1:50 w/w, 4 h, LC-MS, mean ± spread", "experimental": "Simulated gastrointestinal digestion was done based on the method of Quirós et al.. Synthetic peptide (1 mg/mL) was prepared in HBSS and acidified with HCl to reach pH 2.0, then hydrolyzed with 1:10,000 pepsin at an enzyme/substrate ratio of 1:50 (w/w), and incubated in constant temperature water oscillation at 37 °C for 90 min with a low shaking rate (120 rpm). After gastric digestion, samples were adjusted to pH 7.5 with saturated NaHCO3 and 1:250 trypsin was added at an enzyme/substrate ratio of 1:50 (w/w), and incubated in constant temperature water oscillation at 37 °C for 4 h with a low shaking rate (120 rpm). Reactions were stopped in a boiling water bath for 10 min. Digested samples were centrifuged (3K15, SIGMA Laborzentrifugen GmbH, Germany) at 30,000× g at 4 °C for 20 min and diluted 100 times to analyze peptide concentrations using liquid chromatography-tandem mass spectrometry (LC-MS, 1200, Agilent, CA, USA)."}}, "note": "Entries after “also recorded” stand apart in the source; their conditions may differ. Where no end group is shown, it is not given here."}
{"substance": "Gln-Ile-Gly-Leu-Phe [QIGLF]", "values": [{"measurement": "Change of Papp value after cytochalasin D treatment", "setting": "[1]", "value": "significantly (p < 0.05) increased"}]}
{"substance": "Val-Pro-Pro [VPP]", "values": [{"measurement": "Papp value", "setting": "[2]", "value": 0.005, "unit": "×10⁻⁶ cm/s"}]}
{"substance": "WGAPSL", "values": [{"measurement": "cleaved bond", "setting": "[3]", "value": "W-G, 120 min; also recorded: P-S, 120 min; also recorded: S-L, 120 min"}, {"measurement": "fragment found", "setting": "[4]", "value": "APSL and PSL and GAPSL and WGA and WG"}]}
{"substance": "WGAPSL [WGAPSL, Trp-Gly-Ala-Pro-Ser-Leu]", "values": [{"measurement": "Effect of wortmannin on peptide concentration (BL side)", "setting": "[5]; 30 min preincubation with 500 nM wortmannin (transcytosis inhibitor)", "value": "did not significantly (p > 0.05) affect"}, {"measurement": "Effect of Gly-Pro on peptide transport", "setting": "[5]; 30 min preincubation with 10 mM Gly-Pro (PepT1 substrate)", "value": "not significantly (p > 0.05) decreased"}, {"measurement": "Effect of sodium azide on peptide transport", "setting": "[5]; 30 min preincubation with 10 mM sodium azide (ATP synthesis inhibitor)", "value": "A similar result"}, {"measurement": "Increase of peptide concentration in the BL side vs control, with cytochalasin D", "setting": "[5]; 30 min preincubation with cytochalasin D 0.5 μg/mL (tight junction disruptor), p < 0.05", "value": 66, "unit": "%"}, {"measurement": "P-glycoprotein substrate status", "setting": "[6]", "value": "not a substrate of P-glycoprotein"}, {"measurement": "viability at 2 h, 10000 µM", "setting": "[7]", "value": 27, "unit": "%"}, {"measurement": "Cytotoxicity for Caco-2 cells", "setting": "[8]; 1 mM peptide in DMEM", "value": "non-toxic"}, {"measurement": "Cytotoxicity for Caco-2 cells", "setting": "[8]; 2 mM peptide in DMEM", "value": "non-toxic"}, {"measurement": "Stability (intact peptide) after simulated gastric and intestinal digestion", "setting": "[9]", "value": "83.9% ± 1.98"}]}
